Assay results from article PMC10746543, “Design principles for cyclin K molecular glue degraders” (Nature Chemical Biology, 2023).
Values joined by “and” are separate entries in the source; they are usually repeats but may differ in a detail not shown here. Equal values may be shown once. Read-outs that look alike come from different tables or passages of the source.

Columns and labels:
[1] = biological target: T1, CDK12–cyclin K and DDB1 (Homo sapiens, UniProt Q16531+Q9NYV4, K965R); assay: TR-FRET ternary complex formation assay (compound titration); assay type: binding
T1 construct: His6–CDK12 (a.a. 713–1,052); full-length or beta-propeller B domain deletion (ΔBPB: a.a. 396–705 deleted) constructs of His6–DDB1ΔBPB, StrepII–Avi–DDB1, or His6–Spy–DDB1; made in house; host or cells: Trichoplusia ni High Five insect cells (baculovirus)
Method in brief: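 Delayed (70 μs) time-resolved read; FRET computed as 520 nm over 490 nm emission.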

[2] = tested on: cyclin K–eGFP degradation reporter; assay: Cyclin K reporter stability analysis (dual-color cyclin K–eGFP reporter); assay type: cell-based, human; settings: Supplementary Table 2; HEK293T cycK-eGFP reporter, 5 h; read-out: Cellular assays DC50
Method in brief: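 A 5 h treatment of HEK293T–Cas9 cells expressing the degradation reporter preceded flow cytometry; eGFP over mCherry, normalized to DMSO.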

[3] = tested on: HEK293T cells; assay: Drug sensitivity assay (CellTiter-Glo viability) with or without MLN4924 pretreatment; assay type: cell-based, human; settings: Supplementary Table 2
Method in brief: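 Viability of HEK293T–Cas9 cells was compared after 3-day drug treatment with or without 100 nM MLN4924 pretreatment (2 h, versus DMSO). Values are CellTiter-Glo signals relative to DMSO controls.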

[4] = biological target: CDK12–cyclin K (Homo sapiens, UniProt Q9NYV4); assay: Lanthascreen kinase binding assay, CDK12; settings: for Lanthascreen raw signal, sheet CDK12: series r37, duplicates
Experimental: (§1) Lanthascreen experiments were performed using commercially available reagents (Thermo Fisher) and according to the manufacturer’s instructions.

[5] = biological target: T2, CDK9–cyclin T (Homo sapiens, UniProt P50750); assay: Lanthascreen kinase binding assay, CDK9; settings: for Lanthascreen TR-FRET signal (raw ratio), sheet CDK9: third titration set (r25), duplicates
T2 construct: purchased Thermo Fisher
Experimental: as §1

[6] = biological target: T3, CDK2–cyclin A (Homo sapiens, UniProt P24941); assay: Lanthascreen kinase binding assay, CDK2; settings: for Lanthascreen signal, sheet CDK2: raw replicates, experiment r36-r46
T3 construct: purchased Thermo Fisher
Experimental: as §1

Chain of CDK12–cyclin K (Q9NYV4 713-1052): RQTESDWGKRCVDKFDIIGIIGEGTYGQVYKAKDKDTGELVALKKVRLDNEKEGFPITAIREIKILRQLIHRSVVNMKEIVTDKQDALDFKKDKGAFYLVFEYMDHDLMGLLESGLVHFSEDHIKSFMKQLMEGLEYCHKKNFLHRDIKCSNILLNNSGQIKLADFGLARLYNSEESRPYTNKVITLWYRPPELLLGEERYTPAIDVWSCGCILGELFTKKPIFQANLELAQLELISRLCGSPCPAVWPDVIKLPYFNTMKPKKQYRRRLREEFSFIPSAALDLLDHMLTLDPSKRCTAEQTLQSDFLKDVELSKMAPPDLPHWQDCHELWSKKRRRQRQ
Chain of CDK12–cyclin K (O75909 1-267 partner limits assumed): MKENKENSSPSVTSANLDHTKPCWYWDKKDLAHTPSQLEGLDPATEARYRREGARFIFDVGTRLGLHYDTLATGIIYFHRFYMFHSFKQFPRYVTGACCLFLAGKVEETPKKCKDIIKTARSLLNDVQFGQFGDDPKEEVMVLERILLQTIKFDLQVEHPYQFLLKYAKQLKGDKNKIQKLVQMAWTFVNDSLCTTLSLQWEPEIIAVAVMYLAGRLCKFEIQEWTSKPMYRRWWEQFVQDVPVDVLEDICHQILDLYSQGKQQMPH
T1 sequence (Q9NYV4 713-1052 K965R): as the sequence (Q9NYV4 713-1052) above, with K253R counted along it
T1 sequence (O75909 1-267 partner): as the sequence (O75909 1-267 partner limits assumed) above
T1 sequence (Q16531 whole entry): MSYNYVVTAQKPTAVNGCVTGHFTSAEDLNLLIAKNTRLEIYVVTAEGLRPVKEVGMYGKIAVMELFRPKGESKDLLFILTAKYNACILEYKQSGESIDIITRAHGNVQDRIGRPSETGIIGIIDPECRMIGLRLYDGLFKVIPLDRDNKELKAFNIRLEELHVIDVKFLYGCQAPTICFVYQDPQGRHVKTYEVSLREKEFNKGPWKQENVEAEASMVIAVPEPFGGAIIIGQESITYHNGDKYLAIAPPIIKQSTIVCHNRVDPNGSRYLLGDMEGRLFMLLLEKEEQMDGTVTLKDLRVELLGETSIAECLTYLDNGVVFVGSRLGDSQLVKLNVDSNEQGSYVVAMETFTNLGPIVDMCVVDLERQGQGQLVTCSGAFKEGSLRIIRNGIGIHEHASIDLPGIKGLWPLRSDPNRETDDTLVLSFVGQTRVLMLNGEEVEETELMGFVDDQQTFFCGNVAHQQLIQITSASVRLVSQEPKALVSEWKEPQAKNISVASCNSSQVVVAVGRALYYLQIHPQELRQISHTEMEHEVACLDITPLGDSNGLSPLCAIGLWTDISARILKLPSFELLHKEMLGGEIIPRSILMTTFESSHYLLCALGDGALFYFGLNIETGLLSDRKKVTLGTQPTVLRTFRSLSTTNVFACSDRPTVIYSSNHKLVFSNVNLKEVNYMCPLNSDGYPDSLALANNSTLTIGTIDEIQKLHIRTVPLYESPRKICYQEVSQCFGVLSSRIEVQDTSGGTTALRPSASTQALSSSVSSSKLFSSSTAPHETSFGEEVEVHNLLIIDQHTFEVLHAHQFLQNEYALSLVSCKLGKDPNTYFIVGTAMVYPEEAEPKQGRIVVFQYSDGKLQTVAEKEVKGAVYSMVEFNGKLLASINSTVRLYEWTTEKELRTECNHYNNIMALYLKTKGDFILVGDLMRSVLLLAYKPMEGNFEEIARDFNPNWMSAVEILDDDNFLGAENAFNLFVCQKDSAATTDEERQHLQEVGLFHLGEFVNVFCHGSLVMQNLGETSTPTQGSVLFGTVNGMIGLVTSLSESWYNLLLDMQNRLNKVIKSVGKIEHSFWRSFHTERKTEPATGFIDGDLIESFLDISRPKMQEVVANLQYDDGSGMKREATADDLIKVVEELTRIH
T2 sequence (P50750 whole entry): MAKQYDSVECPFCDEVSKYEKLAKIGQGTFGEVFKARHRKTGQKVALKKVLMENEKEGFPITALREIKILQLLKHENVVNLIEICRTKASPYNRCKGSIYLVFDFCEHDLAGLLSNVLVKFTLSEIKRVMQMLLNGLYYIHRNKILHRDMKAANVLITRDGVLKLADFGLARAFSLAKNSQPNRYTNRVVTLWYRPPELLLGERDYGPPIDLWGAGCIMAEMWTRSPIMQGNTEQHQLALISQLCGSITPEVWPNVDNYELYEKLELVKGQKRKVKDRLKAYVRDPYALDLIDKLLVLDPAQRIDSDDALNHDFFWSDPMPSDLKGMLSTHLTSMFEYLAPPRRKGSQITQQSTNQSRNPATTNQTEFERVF
T2 sequence (O60563 whole entry partner): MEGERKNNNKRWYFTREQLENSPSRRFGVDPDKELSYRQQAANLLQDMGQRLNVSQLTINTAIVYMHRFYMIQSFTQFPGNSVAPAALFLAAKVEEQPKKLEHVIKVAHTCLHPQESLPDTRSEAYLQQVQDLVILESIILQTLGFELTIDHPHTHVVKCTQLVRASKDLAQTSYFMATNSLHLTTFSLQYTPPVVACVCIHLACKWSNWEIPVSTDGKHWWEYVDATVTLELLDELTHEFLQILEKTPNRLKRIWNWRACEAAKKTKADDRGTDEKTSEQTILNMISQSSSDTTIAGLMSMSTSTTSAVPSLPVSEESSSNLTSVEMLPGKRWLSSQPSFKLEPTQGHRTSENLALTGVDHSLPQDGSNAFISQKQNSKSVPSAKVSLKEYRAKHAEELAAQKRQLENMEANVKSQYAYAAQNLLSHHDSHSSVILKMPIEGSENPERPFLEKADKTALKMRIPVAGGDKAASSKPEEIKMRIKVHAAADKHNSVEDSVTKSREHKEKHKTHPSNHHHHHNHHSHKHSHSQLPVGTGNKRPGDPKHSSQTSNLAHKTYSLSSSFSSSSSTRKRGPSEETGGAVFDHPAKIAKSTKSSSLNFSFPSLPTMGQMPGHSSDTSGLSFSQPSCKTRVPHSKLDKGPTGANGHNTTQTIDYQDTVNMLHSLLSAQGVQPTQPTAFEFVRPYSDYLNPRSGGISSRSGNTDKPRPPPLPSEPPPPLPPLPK

- TR-FRET signal at compound concentration 4.68 nM ([1]; compound concentration 4.68 nM, raw replicate titration data): 0.1341 and 0.1393
- TR-FRET signal at compound concentration 21.6 nM ([1]; compound concentration 21.6 nM, raw replicate titration data): 0.1505 and 0.1671
- TR-FRET signal at compound concentration 36 nM ([1]; compound concentration 36 nM, raw replicate titration data): 0.1763 and 0.1953
- TR-FRET signal at compound concentration 79.2001 nM ([1]; compound concentration 79.2001 nM, raw replicate titration data): 0.2244 and 0.2373
- TR-FRET signal at compound concentration 158.4 nM ([1]; compound concentration 158.4 nM, raw replicate titration data): 0.3075 and 0.3209
- TR-FRET signal at compound concentration 309.6 nM ([1]; compound concentration 309.6 nM, raw replicate titration data): 0.4615 and 0.4691
- TR-FRET signal at compound concentration 626.401 nM ([1]; compound concentration 626.401 nM, raw replicate titration data): 0.7336 and 0.7393
- TR-FRET signal at compound concentration 1252.8 nM ([1]; compound concentration 1252.8 nM, raw replicate titration data): 1.129 and 1.14
- TR-FRET signal at compound concentration 2448 nM ([1]; compound concentration 2448 nM, raw replicate titration data): 1.631 and 1.657
- TR-FRET signal at compound concentration 9936.01 nM ([1]; compound concentration 9936.01 nM, raw replicate titration data): 2.437 and 2.497
- TR-FRET signal at compound concentration 20016 nM ([1]; compound concentration 20016 nM, raw replicate titration data): 2.527 and 2.638
- DDB1–CDK12 complex formation, result in words ([1]; in vitro TR-FRET): poorer glues
- EC50 ([1]; sheet MOESM7, read-out: log TR-FRET EC50 (converted)): 1.84 µM
- DC50 [2]: > 10 µM
- IC50 ([4]; Lanthascreen, average, Extended Data Fig. 8, read-out: CDK12 IC50): > 10000 nM
- IC50 ([4]; Supplementary Table 2, read-out: Lanthascreen IC50 [nM] CDK12): > 10000 nM
- Lanthascreen raw signal, sheet CDK12 ([4]; compound 0.038147 nM): 0.01392 and 0.01331
- Lanthascreen raw signal, sheet CDK12 ([4]; compound 0.152588 nM): 0.01475 and 0.01452
- Lanthascreen raw signal, sheet CDK12 ([4]; compound 0.610352 nM): 0.01495
- Lanthascreen raw signal, sheet CDK12 ([4]; compound 9.76563 nM): 0.01647 and 0.01469
- Lanthascreen raw signal, sheet CDK12 ([4]; compound 39.0625 nM): 0.0142 and 0.01474
- Lanthascreen raw signal, sheet CDK12 ([4]; compound 156.25 nM): 0.01388 and 0.01469
- Lanthascreen raw signal, sheet CDK12 ([4]; compound 625 nM): 0.01464 and 0.015
- Lanthascreen raw signal, sheet CDK12 ([4]; compound 2500 nM): 0.01337 and 0.01367
- Lanthascreen raw signal, sheet CDK12 ([4]; compound 10000 nM): 0.01057 and 0.01115
- IC50 ([5]; Supplementary Table 2, read-out: Lanthascreen IC50 [nM] CDK9): 3200 nM
- Lanthascreen TR-FRET signal (raw ratio), sheet CDK9 ([5]; compound 0.038147 nM): 0.01966 and 0.01664
- Lanthascreen TR-FRET signal (raw ratio), sheet CDK9 ([5]; compound 0.152588 nM): 0.02094 and 0.01978
- Lanthascreen TR-FRET signal (raw ratio), sheet CDK9 ([5]; compound 0.610352 nM): 0.02169 and 0.01748
- Lanthascreen TR-FRET signal (raw ratio), sheet CDK9 ([5]; compound 9.76563 nM): 0.02175 and 0.01903
- Lanthascreen TR-FRET signal (raw ratio), sheet CDK9 ([5]; compound 39.0625 nM): 0.02145 and 0.01745
- Lanthascreen TR-FRET signal (raw ratio), sheet CDK9 ([5]; compound 156.25 nM): 0.02109 and 0.01723
- Lanthascreen TR-FRET signal (raw ratio), sheet CDK9 ([5]; compound 625 nM): 0.02056 and 0.01753
- Lanthascreen TR-FRET signal (raw ratio), sheet CDK9 ([5]; compound 2500 nM): 0.01726 and 0.0135
- Lanthascreen TR-FRET signal (raw ratio), sheet CDK9 ([5]; compound 10000 nM): 0.01114 and 0.009536
- Lanthascreen signal, sheet CDK2 ([6]; Compound 0.038147 nM): 0.01372 and 0.01355
- Lanthascreen signal, sheet CDK2 ([6]; Compound 0.152588 nM): 0.01402 and 0.01425
- Lanthascreen signal, sheet CDK2 ([6]; Compound 0.610352 nM): 0.0137 and 0.01464
- Lanthascreen signal, sheet CDK2 ([6]; Compound 9.76563 nM): 0.01391 and 0.01419
- Lanthascreen signal, sheet CDK2 ([6]; Compound 39.0625 nM): 0.01392 and 0.01397
- Lanthascreen signal, sheet CDK2 ([6]; Compound 156.25 nM): 0.01435 and 0.01404
- Lanthascreen signal, sheet CDK2 ([6]; Compound 625 nM): 0.01359 and 0.01432
- Lanthascreen signal, sheet CDK2 ([6]; Compound 2500 nM): 0.01402 and 0.01364
- Lanthascreen signal, sheet CDK2 ([6]; Compound 10000 nM): 0.01203 and 0.01167
- IC50 ([6]; Lanthascreen, average, Extended Data Fig. 8, read-out: CDK2 IC50): > 10000 nM
- IC50 ([6]; Supplementary Table 2, read-out: Lanthascreen IC50 [nM] CDK2): > 10000 nM
Structure (SMILES): CC[C@H](CO)Nc1nc(NCc2ccc(-c3ccccn3)cc2)c2ncn(-c3cnn(C)c3)c2n1 [DS20]
- EC50 ([3]; Homo sapiens, HEK-293T, HEK293T viability, 72 h, compound alone, read-out: Cellular assays EC50): > 10 µM
- Toxicity rescue ([3]; MLN4924-mediated cytotoxicity rescue, 10 µM used where n.d.): 0%
